# Measurements as given in patent US20240124434A1, “ATF6 INHIBITORS AND USES THEREOF” (Altos Labs, Inc., priority 2018, published 2024).
# Assays:
# [1] = in vivo; details: Balb/c, mouse, po, 10 mg/kg
# Method: (§3) Tested compounds were formulated at 1 mg/mL as a dosing solution for oral administration in vehicle A: 10% dimethylacetamide (DMAC), 20% propylene glycol, and 40% PEG-400 or vehicle B: 10% Kolliphor® EL and 10% ethanol (EtOH).
# (§4) Animals were acclimated for a minimum period of 4 days upon arrival at the testing facility.
# (§5) At the day of study, mice were weighed, identified by marking the tail with numbers using a non-toxic permanent marker, and designated into ten experimental groups (n=3 per group).
# (§6) Non-dosed mice were used to collect samples of zero time points. […] Blood samples were centrifuged immediately at 9,000 g at 4° C. for 5 minutes and then plasmas were separated. Plasma samples were placed into individually labeled cryovials and stored in a −80° C. freezer until LC/MS/MS bioanalysis.
# (§7) The bioanalysis of plasma samples was conducted with a QTRAP 4500 triple quadrupole mass spectrometer (Applied Biosystems SCIEX) in the positive ion mode and interfaced with an Ekspert Ultra LC100 UPLC System (Eksigent). Calibration standards (0.01 to 10 μM) and QCs (0.02, 0.2 and 2.0 μM) were prepared from naïve mouse plasma in parallel with mouse plasma study samples (60 μL) by precipitation with three volumes of ice cold internal standard solution (acetonitrile containing 20 μM of theophylline). The precipitated samples were centrifuged at 6,100 g for 30 min. Following centrifugation, an aliquot of each supernatant was transferred to an autosampler plate and diluted with two volumes of aqueous mobile phase (0.1% formic acid in water). Samples were injected onto a reverse phase analytical column (YMC Triart C18; 2.0×50 mm; 1.9 μm; YMC CO) and eluted with a gradient of 0.1% formic acid in Acetonitrile. Assayed test compound and internal standards were monitored by a multiple reaction monitoring (MRM) experiment using an Analyst software (v1.6.2, Applied Biosystems SCIEX). Quantitation was conducted using a MultiQuant software (v2.1, Applied Biosystems SCIEX) and the resulting calibration curve was fitted with a linear regression and 1/x weighting. The lower limits of quantitation were 1<LLQ <5 ng/mL.
# [2] = In vitro microsomal stability, mouse liver microsomes; format: in vitro ADME
# Outline: (§1)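 1 μM compound was incubated at 37 °C with 0.5 mg/mL human, mouse or rat liver microsomes and 1 mM NADPH in 100 mM phosphate buffer pH 7.4. Reactions were stopped at 0, 5, 15 and 30 min with cold acetonitrile containing propranolol internal standard.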
# [3] = In vitro microsomal stability, rat liver microsomes; format: in vitro ADME
# Outline: as §1
# [4] = biological target: CYP1A2 (Homo sapiens (Human), UniProt P05177); test: CYP inhibition in human liver microsomes
# CYP1A2, sequence (P05177 whole entry, canonical isoform): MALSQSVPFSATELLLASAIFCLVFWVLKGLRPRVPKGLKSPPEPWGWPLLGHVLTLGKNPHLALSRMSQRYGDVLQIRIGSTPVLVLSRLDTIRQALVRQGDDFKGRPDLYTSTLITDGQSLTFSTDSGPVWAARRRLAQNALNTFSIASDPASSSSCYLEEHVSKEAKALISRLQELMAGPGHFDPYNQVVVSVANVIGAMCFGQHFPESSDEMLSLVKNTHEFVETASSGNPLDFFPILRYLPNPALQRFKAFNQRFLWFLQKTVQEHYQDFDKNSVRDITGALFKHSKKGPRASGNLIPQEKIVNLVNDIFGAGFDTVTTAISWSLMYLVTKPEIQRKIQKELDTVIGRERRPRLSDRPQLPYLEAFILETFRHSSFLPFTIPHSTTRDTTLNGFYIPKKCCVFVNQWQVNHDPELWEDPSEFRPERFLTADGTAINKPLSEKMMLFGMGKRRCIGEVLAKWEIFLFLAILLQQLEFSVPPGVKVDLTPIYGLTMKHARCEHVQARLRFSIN
# Outline: (§2)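 Pooled human liver microsomes with isoform probe substrates: 2 μM midazolam (CYP3A4, 10 min), 50 μM phenacetin (CYP1A2), 5 μM diclofenac (CYP2C9), both 20 min; CYP2C8 run 20 min, desethylamodiaquine formation. Metabolites (1-hydroxymidazolam, acetaminophen, 4-hydroxydiclofenac) quantified by LC/MS/MS after acetonitrile stop.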
# [5] = biological target: CYP3A4 (Homo sapiens (Human), UniProt P08684); test: CYP inhibition in human liver microsomes
# CYP3A4, sequence (P08684 whole entry): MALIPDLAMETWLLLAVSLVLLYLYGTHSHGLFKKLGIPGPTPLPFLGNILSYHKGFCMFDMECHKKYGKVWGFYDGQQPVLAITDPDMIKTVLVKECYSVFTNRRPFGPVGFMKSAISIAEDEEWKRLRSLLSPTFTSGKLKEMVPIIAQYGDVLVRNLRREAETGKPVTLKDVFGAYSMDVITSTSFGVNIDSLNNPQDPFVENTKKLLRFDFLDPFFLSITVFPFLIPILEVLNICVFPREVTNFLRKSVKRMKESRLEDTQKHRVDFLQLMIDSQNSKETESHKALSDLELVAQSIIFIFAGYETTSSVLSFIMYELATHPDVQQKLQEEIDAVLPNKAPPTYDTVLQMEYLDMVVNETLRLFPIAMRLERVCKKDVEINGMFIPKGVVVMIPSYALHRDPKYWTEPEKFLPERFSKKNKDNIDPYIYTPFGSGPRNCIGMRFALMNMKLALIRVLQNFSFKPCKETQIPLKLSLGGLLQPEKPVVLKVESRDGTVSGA
# Outline: as §2
# [6] = biological target: CYP2B6 (Homo sapiens (Human), UniProt P20813); test: CYP inhibition in human liver microsomes
# CYP2B6, sequence (P20813 whole entry): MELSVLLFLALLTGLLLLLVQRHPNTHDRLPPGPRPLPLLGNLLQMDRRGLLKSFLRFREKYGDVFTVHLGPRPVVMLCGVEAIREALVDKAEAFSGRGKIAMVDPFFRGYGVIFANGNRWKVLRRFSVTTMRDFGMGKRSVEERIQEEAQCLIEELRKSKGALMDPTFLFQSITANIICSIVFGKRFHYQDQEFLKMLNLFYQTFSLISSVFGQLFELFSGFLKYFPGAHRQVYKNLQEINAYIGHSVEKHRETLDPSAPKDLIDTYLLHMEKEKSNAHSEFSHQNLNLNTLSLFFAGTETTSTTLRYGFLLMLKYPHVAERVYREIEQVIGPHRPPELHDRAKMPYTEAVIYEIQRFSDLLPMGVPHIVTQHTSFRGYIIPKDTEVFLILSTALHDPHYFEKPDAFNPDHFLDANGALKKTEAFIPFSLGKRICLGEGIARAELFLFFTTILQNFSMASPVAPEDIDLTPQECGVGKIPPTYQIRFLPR
# [7] = biological target: CYP2D6 (Homo sapiens (Human), UniProt P10635); test: CYP inhibition in human liver microsomes
# CYP2D6, sequence (P10635 whole entry): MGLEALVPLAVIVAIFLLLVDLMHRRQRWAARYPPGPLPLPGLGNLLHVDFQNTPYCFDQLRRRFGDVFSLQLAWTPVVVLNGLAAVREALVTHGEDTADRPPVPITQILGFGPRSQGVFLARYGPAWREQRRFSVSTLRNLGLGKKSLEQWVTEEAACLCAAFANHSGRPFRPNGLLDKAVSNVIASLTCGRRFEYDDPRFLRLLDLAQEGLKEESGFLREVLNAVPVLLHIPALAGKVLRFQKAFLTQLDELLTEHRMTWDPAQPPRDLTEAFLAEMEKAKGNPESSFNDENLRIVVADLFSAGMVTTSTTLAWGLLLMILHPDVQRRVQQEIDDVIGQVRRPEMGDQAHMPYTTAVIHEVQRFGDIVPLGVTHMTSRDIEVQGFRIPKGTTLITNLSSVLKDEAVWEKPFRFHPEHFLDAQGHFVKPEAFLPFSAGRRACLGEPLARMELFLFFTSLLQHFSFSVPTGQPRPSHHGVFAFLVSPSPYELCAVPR
# [8] = biological target: CYP2C9 (Homo sapiens (Human), UniProt P11712); test: CYP inhibition in human liver microsomes
# CYP2C9, sequence (P11712 whole entry): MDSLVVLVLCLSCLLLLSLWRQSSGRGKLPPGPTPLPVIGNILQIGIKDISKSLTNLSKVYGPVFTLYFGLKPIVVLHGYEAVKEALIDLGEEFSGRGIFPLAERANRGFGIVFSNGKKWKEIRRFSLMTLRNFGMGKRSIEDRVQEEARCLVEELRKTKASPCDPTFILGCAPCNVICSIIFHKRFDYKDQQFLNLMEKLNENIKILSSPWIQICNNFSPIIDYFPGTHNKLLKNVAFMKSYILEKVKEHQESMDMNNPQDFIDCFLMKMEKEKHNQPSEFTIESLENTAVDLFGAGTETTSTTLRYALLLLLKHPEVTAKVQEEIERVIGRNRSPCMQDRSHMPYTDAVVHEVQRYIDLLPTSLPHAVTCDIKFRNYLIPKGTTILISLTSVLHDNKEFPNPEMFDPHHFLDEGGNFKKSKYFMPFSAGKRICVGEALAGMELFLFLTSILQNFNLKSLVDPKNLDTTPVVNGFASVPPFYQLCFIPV
# Outline: as §2
# [9] = biological target: CYP2C19 (Homo sapiens (Human), UniProt P33261); test: CYP inhibition in human liver microsomes
# CYP2C19, sequence (P33261 whole entry): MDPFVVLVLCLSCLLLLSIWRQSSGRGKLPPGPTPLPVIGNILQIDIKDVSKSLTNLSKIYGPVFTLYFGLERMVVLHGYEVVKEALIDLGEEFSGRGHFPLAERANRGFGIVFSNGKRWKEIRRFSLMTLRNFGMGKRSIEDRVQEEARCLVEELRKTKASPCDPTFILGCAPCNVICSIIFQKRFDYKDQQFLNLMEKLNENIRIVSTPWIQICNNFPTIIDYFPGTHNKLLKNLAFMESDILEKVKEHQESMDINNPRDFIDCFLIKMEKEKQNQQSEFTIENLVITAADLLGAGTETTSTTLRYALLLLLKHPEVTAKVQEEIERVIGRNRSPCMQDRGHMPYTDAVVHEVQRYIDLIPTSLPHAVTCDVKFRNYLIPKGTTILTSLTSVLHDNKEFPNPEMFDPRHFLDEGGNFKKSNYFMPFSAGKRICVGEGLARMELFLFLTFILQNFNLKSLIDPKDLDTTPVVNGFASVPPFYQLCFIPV
# [10] = In vitro microsomal stability, human liver microsomes; format: in vitro ADME
# Outline: as §1
# [11] = Oral bioavailability and PK parameters in Balb/c mice; details: single oral dose 10 mg/kg, volume of distribution
# Method: as §3, §4, §5, §6, §7
# [12] = mouse, in vivo, po, 10 mg/kg
# Method: as §3, §4, §5, §6, §7
# [13] = test system: ATF6; test: ERSE ATF6-luciferase reporter assay (thapsigargin-induced ER stress); format: cell-based, human
# [14] = Kinetic solubility (nephelometry); format: physicochemical; details: aqueous buffer, kinetic from dmso stock; PBS pH 7.4, 1% DMSO, 1 hour at 37° C., light scattering at 625 nm
# Method: Concentration (μM) was then calculated by segmental regression. Amiodarone (#A8423 Aldrich) was used as positive control.
smiles,measurement,setting,value
"CC(c1ccc(C(F)(F)F)cc1C(F)(F)F)n1cc(NC(=O)c2cc(-c3ccccn3)on2)cn1 (single isomer, unassigned) [“Enantiomer A” of Example S5, N-(1-(1-(2,4-bis(trifluoromethyl)phenyl)ethyl)-1H-pyrazol-4-yl)-5-(pyridin-2-yl)isoxazole-3-carboxamide]",AUC(0-inf),[1],32400 ng·h/mL
same,AUC(0-t),[1],18500 ng·h/mL
same,Cmax,[1],4590 ng/mL
same,Tmax,[1],1 h
same,half-life,[1],6.88 h
same,half-life at 1 μM,"[2]; mouse, mouse liver microsomes, pH 7.4, read-out: T1/2 @ mLM",0.582 h
same,microsomal CLint at 1 μM,"[2]; pH 7.4, intrinsic clearance, mouse liver microsomes, read-out: Clint @ mLM",39.7 µL/min/mg
same,Rem. @ mLM (%),"[2]; remaining fraction after 30 min, 1 μM compound, 0.5 mg/mL mouse liver microsomes, 1 mM NADPH",53.8%
same,microsomal CLint at 1 μM,"[3]; pH 7.4, intrinsic clearance, rat liver microsomes, read-out: Clint @ rLM",11.5 µL/min/mg
same,half-life at 1 μM,"[3]; rat, rat liver microsomes, pH 7.4, read-out: T1/2 @ rLM",2.02 h
same,Rem. @ rLM (%),"[3]; remaining fraction after 30 min, 1 μM compound, 0.5 mg/mL rat liver microsomes, 1 mM NADPH",80%
same,IC50,[4],> 50000 nM
same,IC50,[5],> 50000 nM
same,IC50,[6],2490 nM
same,IC50,[7],2300 nM
same,IC50,[8],3070 nM
same,IC50,[9],2310 nM
same,half-life at 1 μM,"[10]; human, human liver microsomes, pH 7.4, read-out: T1/2 @ hLM",1.66 h
same,microsomal CLint at 1 μM,"[10]; pH 7.4, intrinsic clearance, human liver microsomes, read-out: Clint @ hLM",13.9 µL/min/mg
same,Rem. @ hLM (%),"[10]; remaining fraction after 30 min, 1 μM compound, 0.5 mg/mL human liver microsomes, 1 mM NADPH",81.9%
same,Vz,[11],3.07 L/kg
same,AUCExtr [%],[12]; Balb/c,43%
same,F [%],[12]; Balb/c,66.3%
same,Last time point for AUClast,[12],8 h
same,IC50,[13],< 1000 nM
same,Inh. ATF6-Luc @ 1 μM [%],"[13]; 8 h, 1 µM",+++ (+++ refers to >50% inhibition at 1 μM test compound)
same,solubility kinetic at 1 h,[14],4.68 µM
